The results in this text go back to patent publication US10815222B2, “Compounds for use in the treatment of kinetoplastid infection” (C.N.C.C.S. S.c.a.r.l. COLLEZIONE NAZIONALE DEI COMPOSTI …, priority 2016, dated 2020).

The structures appear in SMILES notation. Where two headings read alike, the source gives them in different places.

Data set [1] has as its system Bloodstream form of Trypanosoma brucei, strain Lister 427. The data set can be described thus: Trypanosoma brucei growth inhibition assay (CellTiter-Glo, 24 h). Conditions: Trypanosoma brucei. The format is cell-based. The gist of the method:
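Bloodstream-form T. brucei Lister 427, 1500 parasites per well in supplemented IMDM with 10% FBS, were exposed to compound (DMSO ≤0.25% final) for 24 h at 37 °C. Viability was measured by CellTiter-Glo luminescence.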
On the technique in general: ATP-based viability assays read luminescence as a measure of living cells.

The test system of a further data set is HeLa cells. The data set can be described thus: HeLa cytotoxicity assay (CellTiter Glo, 72 h). Conditions: Homo sapiens, read-out: Cell Proliferation Hela IC50. In kind it is cell-based. The method, then: (§1) HeLa cells (ATCC® CCL2™) in DMEM (Dulbecco Modified Eagle's Medium) without phenol red, Thermo, 11880, USA+10% FBS+1× PenStrep+1× Gln or HUVEC cells (ATCC® CRL1730™) in EBM-2 (Endothelial Growth Basal Medium, Lonza, CC3156)+EGM-2 SingleQuotsTMSupplements and Growth Factors (Lonza, CC4176)+1× Penicyllin-Streptomycin (PenStrep, ThermoFisher)+1× Glutamine, are plated in a 384 well plate (Thermo, 4334-11, USA) to a density of 2000 cells per well and let recover for four hours at 37° C., 5% CO2 in a humidified atmosphere. After the recovery, compounds are transferred to assay plates as per compound preparation method. Assay plates are then incubated at 37° C., 5% CO2 in a humidified atmosphere for 72 hours. Cell viability is measured by the CellTiter Glo (Promega, G8080, USA) as per manufacturer instruction.

A further data set concerns HUVEC cells. As to the kind of experiment: HUVEC cytotoxicity assay (CellTiter Glo, 72 h). The format is cell-based. Conditions: Homo sapiens, read-out: Cell Proliferation HUVEC IC50. As to the method: as §1
The nature of data set [2]: PK studies: plasma exposure and pharmacokinetic parameters after i.v., oral and i.p. administration. In kind it is in vivo, C57BL/6 mice. As to the method: C57BL/6 mice were used to evaluate plasma exposure and pharmacokinetic parameters after intravenous, oral and intraperitoneal administration (5, 10, 30 mpk). In each animal an indwelling cannula was implanted in the right jugular vein for blood sampling. The surgery was performed under light anaesthesia (Ketamine-Xilazine (85 mg/kg and 2.5 mg/kg respectively i.m.) one day prior the experiment). During the kinetic study, all animals were housed individually in plastic metabolism cages, and were unrestrained throughout the experiment. Compounds (6 mg/mL) were dissolved in PEG400/H2O (50/50). After an overnight fast, the mice (15 animals per experiment) received an i.v. (via caudal vein) or an oral dose of the compound. Blood samples were collected at different times point after dosing. Plasma was separated immediately after blood sampling by centrifugation, and the plasma samples were kept frozen (−20° C.) until assayed by LC/MS/MS.
Analytical procedures: Plasma samples were extracted using Liquid Handling Robot MultiProbe Packard by protein precipitation with acetonitrile. Then the samples were centrifuged (3000 rpm×15 min at 4° C.) and the supernatant transferred and dried under nitrogen. The samples were reconstituted in water/acetonitrile 90/10 and then injected directly into an HPLC column. Sample analyses were performed using a an API 3000 or/and API 2000 or/and API 4000 Mass Spectrometer interfaced via the Turbo Ion Spray (ESI)/APCI to an LC system consisting of an HTS PAL CTC autosampler and an Agilen HP 1100 Binary Pump. The results are calculated using Analyst Software linear regression with 1/x*x weighting. The Assay Precision was calculated for the Quality Controls by Watson Lims database.
Pharmacokinetic Analysis: The plasma clearance (CLp) of the compounds were calculated (using Watson PK program) as the dose divided by the area under the plasma concentration-time curve from time zero to infinity (AUC0-∞). The apparent half-life was estimated from the slope of the terminal phase of the log plasma concentration-time data. The volume of distribution (Vdss) was determined using the following noncompartmental method: Vdss=(Dose IV×AUMC)/(AUC0-∞)2 where AUMC is the total area under the first moment of the drug concentration time curve from time zero to infinity. Bioavailability was estimated as the AUC0-∞ ratio following oral and intravenous administration, normalized for differences in dose.

Usually EC50 stands for the concentration that produces a half-maximal response. The term EC90 denotes the concentration needed for an effect of 90%. Usually AUC stands for the area under the concentration-time curve, a measure of exposure. Usually bioavailability stands for the share of a dose that reaches the circulation, judged against a reference dose that is usually intravenous. Consider `COc1nc2ccccc2cc1-c1cnc(C2CN(CC3CCOC3)CCN2C(=O)Cn2c(C(F)(F)F)nc3ccccc32)[nH]1` (stereo not shown) [1-(2-(5-(2-methoxyquinolin-3-yl)-1H-imidazol-2-yl)-4-((tetrahydrofuran-3-yl)methyl)piperazin-1-yl)-2-(2-(trifluoromethyl)-1H-benzo[d]imidazol-1-yl)ethan-1-one], for which the EC50 in data set [1] (T. Brucei Growth Inibition Assay, class symbols, read-out: T. Brucei GI EC50) is < 100 nM; in data set [1] (Table 3, read-out: T. brucei GI EC50), 29.9 nM; in data set [1] (Table 4, read-out: T. brucei Growth inhibition EC50) it was 30 nM. For the same compound, the EC90 in data set [1] (Table 4, read-out: T. brucei Growth inhibition EC90) stood at 287 nM. The IC50 in the data set on HeLa cells stood at 21500 nM; in the data set on HUVEC cells, 14100 nM. The same compound registered a clearance in data set [2] (C57BL/6, intravenous, 5 mpk, mouse, plasma clearance) of 44.7 mL/min/kg. In data set [2] (C57BL/6, mouse, plasma, oral, 10 mpk), this compound displayed an AUC of 4.6 µM·h. Besides, the bioavailability in data set [2] (C57BL/6, plasma, 10 mg/kg, mouse, 10 mpk, po, single oral dose, read-out: Oral Bioavailability F %) was found to be 78%. For the same compound, in data set [2] (mouse, after intraperitoneal injection (30 mpk), brain), the “i.p. max brain concentration” value is given as 190 nM.
